For orientation: IC50 means the concentration at which inhibition is half-maximal.

The results in this text go back to patent publication US20200085791A1, “[(PHENYLSULFONYL)OCTAHYDRO-EPIMINOISOINDOL-YL](1H-1,2,3-TRIAZOL-5-YL)METHANONES” (Bayer Pharma Aktiengesellschaft, priority 2016, published 2020).

This experiment has as its target T1, recombinant human AKR1C3 (Aldo-keto reductase family 1 member C3) (Homo sapiens, UniProt P42330).
T1 construct: GST (cleaved yes); made in house; host or cells: E. coli
T1 sequence (P42330 1-323): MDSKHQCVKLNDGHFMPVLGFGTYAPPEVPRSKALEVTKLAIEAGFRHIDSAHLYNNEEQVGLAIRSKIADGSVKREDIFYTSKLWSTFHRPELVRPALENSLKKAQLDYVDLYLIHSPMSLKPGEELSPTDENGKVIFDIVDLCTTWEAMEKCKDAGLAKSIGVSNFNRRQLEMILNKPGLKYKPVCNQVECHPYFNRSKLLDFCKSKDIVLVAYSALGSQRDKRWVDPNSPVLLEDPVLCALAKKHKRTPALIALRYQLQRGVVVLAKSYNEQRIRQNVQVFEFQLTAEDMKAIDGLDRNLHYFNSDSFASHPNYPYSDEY
The experiment can be described thus: In Vitro Assay 1: AKR1C3-inhibitory activity (Coumberone to Coumberol fluorescence assay). The settings on record: recombinant enzyme, Coumberone 0.3 μM, NADPH 10 μM, 15 min pre-incubation, 4-parameter fit; average or median values. Type of experiment: biochemical. On the procedure:
In Vitro Assay 1: AKR1C3-Inhibitory Activity
The AKR1C3-inhibitory activity of the substances of the present invention was measured in the AKR1C3 assay described in the paragraphs below.
Essentially, the enzyme activity is measured by quantification of the Coumberol from Coumberone (Halim, M., Yee, D. J., and Sames, D., J. AM. CHEM. SOC. 130, 14123-14128 (2008) and Yee, D. J., Balsanek, V., Bauman, D. R., Penning, T. M., and Sames, D., Proc. Natl. Acad. Sci. USA 103, 13304-13309 (2006)). In this test, the increase of the highly fluorescent Coumberol by NADPH- (nicotinamide adenine dinucleotide phosphate)-dependent reduction of the non-fluorescent Coumberone by AKR1C3 can be determined.
The enzyme used was recombinant human AKR1C3 (Aldo-keto reductase family 1 member C3) (GenBank Accession No. NM_003739). This was expressed in E. coli as GST (glutathione S transferase) fusion protein and purified by glutathione Sepharose affinity chromatography. The GST was removed by digestion with thrombin and subsequent size exclusion chromatography (Dufort, I., Rheault, P., Huang, X F., Soucy, P., and Luu-The, V., Endocrinology 140, 568-574 (1999)).
For the assay, 50 nl of a 100-fold concentrated solution of the test substance in DMSO were pipetted into a black low-volume 384-well microtiter plate (Greiner Bio-One, Frickenhausen, Germany), 2.5 μl of a solution of AKR1C3 in assay buffer [50 mM potassium phosphate buffer pH 7, 1 mM DTT, 0.0022% (w/v) Pluronic F-127, 0.01% BSA (w/v) and protease inhibitor cocktail (Complete, EDTA-free Protease Inhibitor Cocktail from Roche)] were added and the mixture was incubated for 15 min to allow pre-binding of the substances to the enzyme prior to the enzyme reaction. The enzyme reaction was then started by addition of 2.5 μl of a solution of NADPH (20 μM→final concentration in 5 μl of assay volume is 10 μM) and Coumberone (0.6 μM→final concentration in 5 μl of assay volume is 0.3 μM) in assay buffer, and the resulting mixture was incubated at […] for the reaction time of typically 90 min. The concentration of the AKR1C3 and the reaction time was adapted to the respective activity of the enzyme preparation and adjusted such that the assay was carried out in the linear range.
Typical AKR1C3 concentrations were in the region of 1 nM. The reaction was stopped by addition of 2.5 μl of a stop solution consisting of the inhibitor EM-1404 [F. Labrie et al. U.S. Pat. No. 6,541,463, 2003] (3 μM→final concentration in 7.5 μl of assay volume is 1 μM). The fluorescence of the Coumberole was then measured at 520 nm (excitation at 380 nm) using a suitable measuring instrument (Pherastar from BMG Labtechnologies). The intensity of the fluorescence was used as a measure of the amount of Coumberole formed and thus of the enzyme activity of AKR1C3. The data were normalized (enzyme reaction without inhibitor—0% inhibition; all other assay components, but no enzyme=100% inhibition).
In the case of `O=C(c1c[nH]nn1)N1C[C@@H]2[C@H](C1)[C@@H]1CC[C@H]2N1S(=O)(=O)c1c(F)cccc1F` [Example 12, {(3aR,4S,7R,7aS)-8-[(2,6-difluorophenyl)sulfonyl]octahydro-2H-4,7-epiminoisoindol-2-yl}(1H-1,2,3-triazol-4-yl)methanone], the IC50 amounted to 43 nM.
For the compound `O=C(c1c[nH]nn1)N1C[C@@H]2[C@H](C1)[C@@H]1CC[C@H]2N1S(=O)(=O)c1ccc(F)cc1F` [Example 13, {(3aR,4S,7R,7aS)-8-[(2,4-difluorophenyl)sulfonyl]octahydro-2H-4,7-epiminoisoindol-2-yl}(1H-1,2,3-triazol-4-yl)methanone], the IC50 came to 102 nM.
In the case of `O=C(c1c[nH]nn1)N1C[C@@H]2[C@H](C1)[C@@H]1CC[C@H]2N1S(=O)(=O)c1ccccc1F` [Example 14, {(3aR,4S,7R,7aS)-8-[(2-fluorophenyl)sulfonyl]octahydro-2H-4,7-epiminoisoindol-2-yl}(1H-1,2,3-triazol-4-yl)methanone] it was 24 nM; in that of `COc1ccccc1S(=O)(=O)N1[C@@H]2CC[C@H]1[C@H]1CN(C(=O)c3c[nH]nn3)C[C@H]12` [Example 15, {(3aR,4S,7R,7aS)-8-[(2-methoxyphenyl)sulfonyl]octahydro-2H-4,7-epiminoisoindol-2-yl}(1H-1,2,3-triazol-4-yl)methanone], 45 nM.
In the case of `Cc1ccccc1S(=O)(=O)N1[C@@H]2CC[C@H]1[C@H]1CN(C(=O)c3c[nH]nn3)C[C@H]12` [Example 16, {(3aR,4S,7R,7aS)-8-[(2-methylphenyl)sulfonyl]octahydro-2H-4,7-epiminoisoindol-2-yl}(1H-1,2,3-triazol-4-yl)methanone] it was 5 nM.
In the case of `O=C(c1c[nH]nn1)N1C[C@@H]2[C@H](C1)[C@@H]1CC[C@H]2N1S(=O)(=O)c1cccc(Cl)c1C(F)(F)F` [Example 17, [(3aR,4S,7R,7aS)-8-{[3-chloro-2-(trifluoromethyl)phenyl]sulfonyl}octahydro-2H-4,7-epiminoisoindol-2-yl](1H-1,2,3-triazol-4-yl)methanone] it was 51 nM.
Regarding `O=C(c1c[nH]nn1)N1C[C@@H]2[C@H](C1)[C@@H]1CC[C@H]2N1S(=O)(=O)c1cc(F)ccc1F` [Example 18, {(3aR,4S,7R,7aS)-8-[(2,5-difluorophenyl)sulfonyl]octahydro-2H-4,7-epiminoisoindol-2-yl}(1H-1,2,3-triazol-4-yl)methanone], the IC50 was determined as 19 nM.
The figure for `O=C(c1cnn[nH]1)N1C[C@@H]2[C@H](C1)[C@H]1CC[C@@H]2N1S(=O)(=O)c1ccccc1` [Example 20, [(3aR,4R,7S,7aS)-8-(phenylsulfonyl)octahydro-2H-4,7-epiminoisoindol-2-yl](1H-1,2,3-triazol-5-yl)methanone] is 45 nM; for `Cc1ccc(S(=O)(=O)N2[C@@H]3CC[C@H]2[C@H]2CN(C(=O)c4cnn[nH]4)C[C@H]23)cc1` [Example 21, {(3aR,4S,7R,7aS)-8-[(4-methylphenyl)sulfonyl]octahydro-2H-4,7-epiminoisoindol-2-yl}(1H-1,2,3-triazol-5-yl)methanone] it is 327 nM; for `O=C(c1cnn[nH]1)N1C[C@@H]2[C@H](C1)[C@@H]1CC[C@H]2N1S(=O)(=O)c1ccc(F)cc1` [Example 22, {(3aR,4S,7R,7aS)-8-[(4-fluorophenyl)sulfonyl]octahydro-2H-4,7-epiminoisoindol-2-yl}(1H-1,2,3-triazol-5-yl)methanone] it is 113 nM.
As to `Cc1cccc(S(=O)(=O)N2[C@@H]3CC[C@H]2[C@H]2CN(C(=O)c4cnn[nH]4)C[C@H]23)c1` [Example 23, {(3aR,4S,7R,7aS)-8-[(3-methylphenyl)sulfonyl]octahydro-2H-4,7-epiminoisoindol-2-yl}(1H-1,2,3-triazol-5-yl)methanone], the IC50 came out at 39 nM.
The figure for `Cc1cc(C)cc(S(=O)(=O)N2[C@@H]3CC[C@H]2[C@H]2CN(C(=O)c4cnn[nH]4)C[C@H]23)c1` [Example 24, {(3aR,4S,7R,7aS)-8-[(3,5-dimethylphenyl)sulfonyl]octahydro-2H-4,7-epiminoisoindol-2-yl}(1H-1,2,3-triazol-5-yl)methanone] is 66 nM; for `O=C(c1cnn[nH]1)N1C[C@@H]2[C@H](C1)[C@@H]1CC[C@H]2N1S(=O)(=O)c1ccc(F)c(F)c1` [Example 25, {(3aR,4S,7R,7aS)-8-[(3,4-difluorophenyl)sulfonyl]octahydro-2H-4,7-epiminoisoindol-2-yl}(1H-1,2,3-triazol-5-yl)methanone] it is 132 nM.
In the case of `N#Cc1cccc(S(=O)(=O)N2[C@@H]3CC[C@H]2[C@H]2CN(C(=O)c4cnn[nH]4)C[C@H]23)c1` [Example 26, 3-{[(3aR,4S,7R,7aS)-2-(1H-1,2,3-triazol-5-ylcarbonyl)octahydro-1H-4,7-epiminoisoindol-8-yl]sulfonyl}benzonitrile] it was 322 nM.
The figure for `O=C(c1cnn[nH]1)N1[C@@H]2CC[C@H]1[C@H]1CN(S(=O)(=O)c3cccc(F)c3)C[C@H]12` [Example 27, {(3aR,4S,7R,7aS)-2-[(3-fluorophenyl)sulfonyl]octahydro-1H-4,7-epiminoisoindol-8-yl}(1H-1,2,3-triazol-5-yl)methanone] is 2 nM; for `O=C(c1cnn[nH]1)N1[C@@H]2CC[C@H]1[C@H]1CN(S(=O)(=O)c3cc(Cl)cc(Cl)c3)C[C@H]12` [Example 28, {(3aR,4S,7R,7aS)-2-[(3,5-dichlorophenyl)sulfonyl]octahydro-1H-4,7-epiminoisoindol-8-yl}(1H-1,2,3-triazol-5-yl)methanone] it is 21 nM.
Regarding `O=C(c1cnn[nH]1)N1[C@@H]2CC[C@H]1[C@H]1CN(S(=O)(=O)c3ccccc3C(F)(F)F)C[C@H]12` [Example 29, 1H-1,2,3-triazol-5-yl[(3aR,4S,7R,7aS)-2-{[2-(trifluoromethyl)phenyl]sulfonyl}octahydro-1H-4,7-epiminoisoindol-8-yl]methanone], the IC50 is 9 nM.
The figure for `O=C(c1cnn[nH]1)N1C[C@@H]2[C@H](C1)[C@H]1CC[C@@H]2N1S(=O)(=O)c1ccc(Br)cc1` [Example 30, ((3aR,4R,7S,7aS)-8-[(4-bromophenyl)sulfonyl]octahydro-2H-4,7-epiminoisoindol-2-yl)(1H-1,2,3-triazol-5-yl)methanone] is 193 nM; for `O=C(c1cnn[nH]1)N1C[C@@H]2[C@H](C1)[C@H]1CC[C@@H]2N1S(=O)(=O)c1ccc(Cl)cc1` [Example 31, {(3aR,4R,7S,7aS)-8-[(4-chorophenyl)sulfonyl]octahydro-2H-4,7-epiminoisoindol-2-yl}(1H-1,2,3-triazol-5-yl)methanone] it is 174 nM.
The figure for `O=C(c1cnn[nH]1)N1C[C@@H]2[C@H](C1)[C@H]1CC[C@@H]2N1S(=O)(=O)c1ccc([N+](=O)[O-])cc1` [Example 32, {(3aR,4R,7S,7aS)-8-[(4-nitrophenyl)sulfonyl]octahydro-2H-4,7-epiminoisoindol-2-yl}(1H-1,2,3-triazol-5-yl)methanone] is 420 nM; for `O=C(c1cnn[nH]1)N1C[C@@H]2[C@H](C1)[C@H]1CC[C@@H]2N1S(=O)(=O)c1cccc([N+](=O)[O-])c1` [Example 33, {(3aR,4R,7S,7aS)-8-[(3-nitrophenyl)sulfonyl]octahydro-2H-4,7-epiminoisoindol-2-yl}(1H-1,2,3-triazol-5-yl)methanone] it is 174 nM.
